The values that follow come from patent publication US20100041647A1, “3-Substituted-[1,2,3]-Benzotriazinone compounds for enhancing glutamatergic synaptic responses” (CORTEX PHARMACEUTICALS, INC., priority 2007, published 2010).

The subject of experiment [1] is AMPA receptor. The experiment is described as follows: Patch clamp electrophysiology assay (glutamate-induced whole-cell current in cultured cortical neurons). The conditions noted are these: Concentration at which glutamate induced current is increased by 100%; 500 μM glutamate, rat cortical neurons. Type of experiment: cell-based. On the procedure:
Cortical cells were prepared from day 18-19 embryonic Sprague-Dawley rats and recorded after 3 days in culture. The extracellular solution (ECS) contained (in mM): NaCl (145), KCl (5.4), HEPES (10), MgCl2 (0.8), CaCl2 (1.8), glucose (10), sucrose (30); pH. 7.4. In order to block the voltage-gated sodium currents, 40 nM TTX was added to the recording solution. The intracellular solution contained (in mM): K-gluconate (140), HEPES (20), EGTA (1.1), phosphocreatine (5), MgATP (3), GTP (0.3), MgCl2 (5), and CaCl2 (0.1); pH: 7.2. All test compound and glutamate solutions were made-up in the extracellular solution.
The whole-cell current was measured with patch-clamp amplifier (Axopatch 200B), filtered at 2 kHz, digitized at 5 kHz and recorded on a PC with pClamp 8. The cells were voltage-clamped at −80 mV. Solutions were applied by DAD-12 system. A baseline response for each cell was recorded using a I s pulse of 500 μM glutamate dissolved in ECS. Responses to test compound were then determined by application of a 10 s pulse of test compound followed by a 1 s pulse of the same concentration of test compound plus 500 μM glutamate and then 10 s of saline. This pulse sequence was repeated until a stable reading was obtained, or until sufficient data points were measured to allow extrapolation to a calculated maximum change.
The mean value of plateau current between 600 ms to 900 ms after application of glutamate or test compound plus glutamate was calculated and used as the parameter to measure the drug effect. The plateau responses in the presence of varying concentrations of test compound were divided by the baseline response in order to calculate the percentage increase. Compounds are deemed active in this test if, at a test concentration of 3 μM or less, they produce a greater than 100% increase in the value of the steady-state current measured due to application of glutamate alone. The concentration at which the glutamate induced current is increased by 100% is commonly referred to as the EC2x value.
(In general: Patch clamp records ionic current or voltage across a cell membrane.)

The subject of experiment [2] is AMPA receptors. The experiment is described as follows: Rat hippocampal slice assay (field EPSP in CA1). Type of experiment: cell-based. As to the method: In another test, excitatory responses (field EPSPs) were measured in hippocampal slices, which were maintained in a recording chamber continuously perfused with artificial cerebrospinal fluid (ACSF). During a 15-30 minute interval, the perfusion medium was switched to one containing various concentrations of the test compounds. Responses collected immediately before and at the end of drug perfusion were superimposed in order to calculate the percent increase in EPSP amplitude.
The field EPSP (excitatory post-synaptic potential) recorded in field CA1 after stimulation of CA3 axons is known to be mediated by AMPA receptors, which are present in the synapses (Kessler et al., Brain Res. 560: 337-341 (1991)). Drugs that selectively block the receptor selectively block the field EPSP (Muller et al., Science, supra). […] These effects are mirrored in the field EPSP (see, for example, Staubli et al., Psychobiology, supra; Xiao et al., Hippocampus, supra; Staubli et al., Hippocampus 2: 4958 (1992)).
To obtain data for the activity of invention compounds on synaptic responses, a bipolar nichrome stimulating electrode was positioned in the dendritic layer (stratum radiatum) of the hippocampal subfield CA1 close to the border of subfield CA3, as described in Example 30. Current pulses (0.1 msec) through the stimulating electrode activate a population of the Schaffer-commissural (SC) fibers, which arise from neurons in the subdivision CA3 and terminate in synapses on the dendrites of CA1 neurons. Activation of these synapses causes them to release the transmitter glutamate. Glutamate binds to post-synaptic AMPA receptors, which then transiently open an associated ion channel and permit a sodium current to enter the postsynaptic cell. This current results in a voltage in the extracellular space (the field EPSP), which is recorded by a high impedance recording electrode positioned in the middle of the stratum radiatum of CA1.
The intensity of the stimulation current was adjusted to produce half-maximal EPSPs (typically about 1.5-2.0 mV). Paired stimulation pulses were given every 40 sec with an interpulse interval of 200 msec, as described further in Example 30.
Hippocampal slices were maintained in a recording chamber continuously perfused with artificial cerebrospinal fluid (ACSF). During 15-30 minute intervals, the perfusion medium was switched to one containing various concentrations of the test compounds. Responses collected immediately before and at the end of drug perfusion were superimposed in order to calculate the percent increase in EPSP amplitude.

Experiment [3] relates to AMPA receptor. The experiment is described as follows: In vivo electrophysiology (field EPSP in dentate gyrus of anesthetized animals). More on the design: species or system rat. On the procedure:
The physiological effects of invention compounds were tested in vivo in anesthetized animals according to the following procedures.
Animals are maintained under anesthesia by phenobarbital administered using a Hamilton syringe pump. Stimulating and recording electrodes are inserted into the perforant path and dentate gyrus of the hippocampus, respectively. Once electrodes are implanted, a stable baseline of evoked responses are elicited using single monophasic pulses (100 μs pulse duration) delivered at 3/min to the stimulating electrode. Field EPSPs are monitored until a stable baseline is achieved (about 20-30 min), after which a solution of test compound in HPCD is injected intraperitoneally and evoked field potentials are recorded. Evoked potentials are recorded for approximately 2 h following drug administration or until the amplitude of the field EPSP returns to baseline. In the latter instance, it is common that an iv administration is also carried out with an appropriate dose of the same test compound.

The structures appear in SMILES notation.

In the case of `C#C[C@H](Cc1cc(F)cc(F)c1)n1nnc2cc3c(cc2c1=O)O[C@@H]1CCCN1C3=O` [Example 16, (6aR)-3-[(2S)-1-(3,5-Difluorophenyl)but-3-yn-2-yl]-6a,7,8,9-tetrahydro-3H-pyrrolo[2′,1′:2,3][1,3]oxazino[6,5-g][1,2,3]benzotriazine-4,11-dione], the “In vitro Patch Clamp Electrophysiology EC2x” value in experiment [1] came to 3 nM. Further, the “% Increase in the amplitude of the field EPSP in the CA1 region of rat hippocampal slice” value (shortened to “% Increase … of rat hippocampal slice”) in experiment [2] (@ 3 μM) worked out at 1% @ 3 μM. Besides, in experiment [3] (5 mpk i.p.), the “% increase in the amplitude of the field EPSP in rat dentate gyrus” value (“% increase … in rat dentate gyrus” for short) came to 34%^3.
Regarding `C#CCn1nnc2cc3c(cc2c1=O)OC1CCCN1C3=O` (stereo not drawn) [Example 9, 3-Prop-2-yn-1-yl-6a,7,8,9-tetrahydro-3H-pyrrolo[2′,1′:2,3][1,3]oxazino[6,5-g][1,2,3]benzotriazine4,11-dione], the “In vitro Patch Clamp Electrophysiology EC2x” value in experiment [1] was 140 nM. The “% Increase … of rat hippocampal slice” value in experiment [2] (@ 3 μM) was 11% @ 3 μM. Besides, in experiment [3] (5 mpk i.v.), the “% increase … in rat dentate gyrus” value worked out at 11%^4.
For `O=C1c2cc3nnn(C4CC4)c(=O)c3cc2OC2CCCN12` (stereo not drawn) [Example 4, 3-Cyclopropyl-6a,7,8,9-tetrahydro-3H-pyrrolo[2′,1′:2,3][1,3]oxazino[6,5-g][1,2,3]benzotriazine-4,11-dione], in that order: 400 nM, 5% @ 3 μM and 19%^4.
Turning to `C[C@H](Cn1ncnn1)n1nnc2cc3c(cc2c1=O)OC1CCCN1C3=O` (stereo partly drawn) [Example 37A, 3-[(2R)-1-(2H-Tetrazol-2-yl)propan-2-yl]-6a,7,8,9-tetrahydro-3H-pyrrolo[2′,1′:2,3][1,3]oxazino[6,5-g][1,2,3]benzotriazine-4,11-dione], the “In vitro Patch Clamp Electrophysiology EC2x” value in experiment [1] worked out at 40 nM. In addition, in experiment [3] (5 mpk i.p.), the “% increase … in rat dentate gyrus” value was 39%^3.
For the molecule `N#CCn1nnc2cc3c(cc2c1=O)OC1CCCN1C3=O` (stereo not drawn) [Example 10, (4,11-Dioxo-4,6a,7,8,9,11-hexahydro-3H-pyrrolo[2′,1′:2,3][1,3]oxazino[6,5-g][1,2,3]benzotriazin-3-yl)acetonitrile], the “In vitro Patch Clamp Electrophysiology EC2x” value in experiment [1] is recorded as 190 nM. In experiment [2] (@ 10 μM), the “% Increase … of rat hippocampal slice” value stood at 10% @ 10 μM. The “% increase … in rat dentate gyrus” value in experiment [3] (5 mpk i.p.) amounted to 12%^3.
Turning to `C[C@H](CSC#N)n1nnc2cc3c(cc2c1=O)OC1CCCN1C3=O` (stereo partly drawn) [Example 35, (2R)-2-(4,11-Dioxo-4,6a,7,8.9,11-hexahydro-3H-pyrrolo[2′,1′:2,3][1,3]oxazino[6,5-g][1,2,3]benzotriazin-3-yl)propyl thiocyanate], the “In vitro Patch Clamp Electrophysiology EC2x” value in experiment [1] worked out at 80 nM. In addition, the “% increase … in rat dentate gyrus” value in experiment [3] (5 mpk i.p.) is recorded as 19%^3.
Regarding `O=C1c2cc3nnn(CCc4cccc(F)c4)c(=O)c3cc2OC2CCCN12` (stereo not drawn) [Example 1, 3-[2-(3-Fluorophenyl)ethyl]-6a,7,8,9-tetrahydro-3H-pyrrolo[2′,1′:2,3][1,3]oxazino[6,5-g][1,2,3]benzotriazine-4,11-dione], the “In vitro Patch Clamp Electrophysiology EC2x” value in experiment [1] turned out to be 3 nM. For the same molecule, in experiment [2] (@ 3 μM), the “% Increase … of rat hippocampal slice” value is given as 9% @ 3 μM. For the same molecule, the “% increase … in rat dentate gyrus” value in experiment [3] (5 mpk i.p.) is recorded as 24%^3.
Take `O=C1c2cc3nnn(CCn4cccn4)c(=O)c3cc2OC2CCCN12` (stereo not drawn) [Example 36, 3-[2-(1H-Pyrazol-1-yl)ethyl]-6a,7,8,9-tetrahydro-3H-pyrrolo[2′,1′:2,3][1,3]oxazino[6,5-g][1,2,3]benzotriazine-4,11-dione]: the “In vitro Patch Clamp Electrophysiology EC2x” value in experiment [1] was found to be 100 nM. In experiment [2] (@ 3 μM), the “% Increase … of rat hippocampal slice” value was determined as 12% @ 3 μM. In addition, the “% increase … in rat dentate gyrus” value in experiment [3] (5 mpk i.v.) is reported as 18%^4.
In the case of `C[C@H](Cn1ncnn1)n1nnc2cc3c(cc2c1=O)OC1COCCN1C3=O` (stereo partly drawn) [Example 64, 3-[(2R)-1-(2H-Tetrazol-2-yl)propan-2-yl]-6a,7,9,10-tetrahydro-3H-[1,4]oxazino[3′,4′:2,3][1,3]oxazino[6,5-g][1,2,3]benzotriazine-4,12-dione], the “In vitro Patch Clamp Electrophysiology EC2x” value in experiment [1] was determined as 170 nM. Also, the “% increase … in rat dentate gyrus” value in experiment [3] (5 mpk i.p.) is given as 30%^3.
